Assay results from US20070037752A1, “Novel alanyl-amino peptidase inhibitors for functionally influencing different cells and treating immunological, inflammatory, neuronal, and other diseases” (priority 2003, published 2007).

Biological target: alanyl aminopeptidases (APN) (Homo sapiens, UniProt P15144)
Experiment: Inhibition of alanyl aminopeptidase enzymatic activity, fluorogenic substrate (Ala)2-rhodamine 110
Assay type: biochemical
Details: Table 4, starred values = ID50; read-out: ID50 APN (values marked with *)
Protocol: The inhibition characteristics measured are referred to as IC-50 values or ID50 values (the latter marked with “*”) for said enzyme. The enzymatic activity was determined by means of the fluorogenic substrate/product (Ala)2-rhodamine 110.

Chain of alanyl aminopeptidases (APN) (P15144 whole entry, species assumed): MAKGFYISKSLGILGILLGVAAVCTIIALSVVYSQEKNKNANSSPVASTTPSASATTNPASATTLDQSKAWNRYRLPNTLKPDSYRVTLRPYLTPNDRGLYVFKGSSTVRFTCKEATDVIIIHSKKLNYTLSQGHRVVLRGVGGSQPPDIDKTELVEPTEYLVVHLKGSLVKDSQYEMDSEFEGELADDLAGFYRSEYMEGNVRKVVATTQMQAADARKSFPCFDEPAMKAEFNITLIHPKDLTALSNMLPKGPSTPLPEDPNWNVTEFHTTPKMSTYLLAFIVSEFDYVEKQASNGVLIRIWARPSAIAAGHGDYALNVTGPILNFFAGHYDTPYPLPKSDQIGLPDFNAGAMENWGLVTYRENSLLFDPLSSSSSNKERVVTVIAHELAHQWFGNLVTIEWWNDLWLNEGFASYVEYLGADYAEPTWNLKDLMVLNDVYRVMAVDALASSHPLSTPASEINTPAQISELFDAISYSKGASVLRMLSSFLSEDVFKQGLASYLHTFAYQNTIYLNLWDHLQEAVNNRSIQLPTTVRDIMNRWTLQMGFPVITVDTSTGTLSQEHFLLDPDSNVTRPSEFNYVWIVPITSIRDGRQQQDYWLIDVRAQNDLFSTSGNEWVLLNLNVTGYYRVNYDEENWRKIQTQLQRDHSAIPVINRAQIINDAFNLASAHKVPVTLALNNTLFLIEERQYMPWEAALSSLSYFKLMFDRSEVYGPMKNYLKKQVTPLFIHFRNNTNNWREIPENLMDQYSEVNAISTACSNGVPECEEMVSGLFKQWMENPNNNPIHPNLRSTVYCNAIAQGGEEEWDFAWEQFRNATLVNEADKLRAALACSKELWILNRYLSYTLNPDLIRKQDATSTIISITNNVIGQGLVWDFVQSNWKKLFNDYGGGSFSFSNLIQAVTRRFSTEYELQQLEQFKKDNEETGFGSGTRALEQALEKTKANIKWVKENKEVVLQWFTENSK

SMILES | IC50
Cc1cccc(C(=O)Nc2ccc(C(=O)N/N=C/c3ccc4c(c3)OCO4)cc2)c1 [A4.105] | 33.8 µM
COc1ccc(C(=O)N/N=C\c2cc(Br)c(O)c(O)c2Br)cc1 [A4.124] | 39.7 µM
O=C(O)CC1S/C(=N/N=C/c2ccco2)NC1=O (stereo not shown) [A4.138] | 48.1 µM
Cc1ccc(OCC(=O)N/N=C/c2c(Br)cc(Br)c(O)c2Br)c(Br)c1 [A4.147] | 54.2 µM
CC(=O)Nc1cccc(C(=O)N/N=C/c2ccc(C)o2)c1 [A4.154] | 63.1 µM
O=C(Cc1ccccc1)NCC(=O)N/N=C/c1ccco1 [A4.161] | 73.1 µM
COc1ccc(OCC(=O)N/N=C/c2c(Br)cc(Br)c(O)c2Br)cc1 [A4.164] | 76.4 µM
Cn1c(=O)c2c(ncn2CC(=O)N/N=C/C=C\c2ccco2)n(C)c1=O [A4.166] | 79.8 µM
COc1ccc(/C=N/NC(=O)CNC(=O)c2cccc(F)c2)cc1[N+](=O)[O-] [A4.167] | 80.4 µM
O=C(N/N=C\C=C\c1ccco1)c1cc(-c2cccs2)n[nH]1 [A4.175] | 132 µM
C/C(=N\NC(=O)c1cc(-c2ccco2)n[nH]1)c1ccco1 [A4.181] | 161 µM
COc1cc(C(=O)NCC(=O)N/N=C\c2ccc(C)o2)cc(OC)c1OC [A4.182] | 161 µM
COc1cccc(C(=O)NCC(=O)N/N=C/c2ccc([N+](=O)[O-])o2)c1 [A4.183] | 222 µM
O=C(N/N=C/c1ccco1)c1ccc(NCc2ccccc2)cc1 [A4.184] | 294 µM
C/C(=N\NC(=O)c1ccn(C)n1)c1ccco1 [A4.186] | 323 µM
C/C(=N\NC(=O)COc1ccc(C)cc1[N+](=O)[O-])c1ccco1 [A4.187] | 422 µM

Further lines, results first:

IC50 | SMILES
49.4 µM | O=C(CNC(=O)c1ccccc1)N/N=C/c1ccco1 [A4.140]
64.9 µM | COc1ccc(C(=O)NCC(=O)N/N=C/c2ccco2)cc1OC [A4.156]
66 µM | COc1ccc(CSCC(=O)N/N=C/c2ccco2)cc1 [A4.157]
67.1 µM | Cc1cccc(C(=O)Nc2ccc(C(=O)N/N=C/c3ccco3)cc2)c1 [A4.158]
75.8 µM | O=C(N/N=C/c1ccco1)c1cc(-c2ccccc2Cl)n[nH]1 [A4.163]
81.8 µM | Cc1ccc(OCC(=O)N/N=C\c2ccco2)c(C)c1 [A4.168]
91.2 µM | O=C(CNC(=O)c1ccccc1Br)N/N=C/c1ccco1 [A4.171]
98.8 µM | O=C(CNC(=O)c1ccccc1O)N/N=C/c1ccco1 [A4.173]
113 µM | Cn1cccc1CC(=O)N/N=C\c1ccco1 [A4.174]
146 µM | CC(C(=O)N/N=C/c1ccco1)n1nnc2ccccc21 (stereo not shown) [A4.176]
155 µM | O=C(CNC(=O)c1cccc(F)c1)N/N=C/c1ccco1 [A4.180]
305 µM | O=C(N/N=C/c1ccco1)c1ccc([N+](=O)[O-])cc1 [A4.185]

Same assay, conditions: Table 4, unstarred values; read-out: IC50APN

SMILES | IC50
CC1SC(N/N=C/c2ccco2)=NC1=O (stereo not shown) [A4.089] | 27.7 µM
O=C(Cc1cccs1)N/N=C/C=C\c1ccco1 [A4.090] | 28 µM
CC(/C=C/c1ccco1)=N\NC(=O)CNc1ccc2ccccc2c1 [A4.091] | 28.5 µM
CC(N/N=C1/SC(CC(=O)O)C(=O)N1c1ccccc1)c1ccco1 (stereo not shown) [A4.092] | 28.6 µM
COc1ccc(/C(C)=N/NC(=O)CNC(=O)/C=C\c2ccco2)cc1 [A4.093] | 29.4 µM
CC(=O)Nc1ccc(C(=O)N/N=C/c2ccc(C)o2)cc1 [A4.095] | 29.7 µM
Cc1cc(C(=O)N/N=C/c2ccc(C)o2)[nH]n1 [A4.100] | 31.8 µM
O=C(CNC(=O)c1ccccc1Br)N/N=C/c1ccoc1 [A4.101] | 31.9 µM
O=C(CC(=O)N/N=C/c1ccco1)N/N=C/c1ccco1 [A4.102] | 32.4 µM
C/C(=N\NC(=O)c1ccccc1)c1ccc2ccccc2c1O [A4.107] | 34.2 µM
Cc1ccc(/C=N/NC(=O)c2ccc(F)cc2)o1 [A4.108] | 34.4 µM
CSc1nnc2n(/N=C/c3ccco3)cnn12 [A4.112] | 34.7 µM
CC(=O)n1cc(/C=C/C=N/NC(=O)CC#N)c2ccccc21 [A4.113] | 35.5 µM
Cc1cccc(C(=O)Nc2cccc(C(=O)N/N=C/c3ccc(C)o3)c2)c1 [A4.115] | 36.2 µM
CC(/C=N/NC(=O)C(O)c1ccccc1)=C\c1ccco1 (stereo not shown) [A4.118] | 36.3 µM
COc1ccc2ccccc2c1-c1cc(C(=O)N/N=C(\C)c2ccco2)[nH]n1 [A4.121] | 38.2 µM
O=C(CCC(=O)Nc1ccccc1)N/N=C/c1ccco1 [A4.125] | 41.1 µM
Cc1cc(Br)c(OCC(=O)N/N=C/c2c(Br)cc(Br)c(O)c2Br)c(Br)c1 [A4.126] | 42.2 µM

SMILES | IC50
Cc1ccc(/C=N/NC(=O)c2ccc(N3CCCC3=O)cc2)o1 [A4.129] | 44.2 µM
O=C(N/C=C1/C(=O)Nc2ccc(F)cc21)/C(=C/c1ccccc1)NC(=O)c1ccccc1 [A4.130] | 44.2 µM
O=C(N/N=C/c1cccc([N+](=O)[O-])c1)c1ccco1 [A4.132] | 45.4 µM
Nc1nonc1-n1nnc(C(=O)N/N=C/c2ccco2)c1-c1ccccc1 [A4.135] | 46.6 µM
NC(=S)N/N=C/c1ccco1 [A4.141] | 50 µM
Cc1ccc(/C=N/NC(=O)c2cc(C)oc2C)o1 [A4.142] | 50.2 µM
CCCCCCCC(=O)N/N=C/c1ccco1 [A4.143] | 50.3 µM
Cc1ccc(/C=N\NC(=O)Cc2cccs2)o1 [A4.144] | 51.1 µM
CC(/C=C/c1ccco1)=N\NC(=O)COc1ccc(C(C)(C)C)cc1 [A4.145] | 53.4 µM
O=C(N/N=C/c1cc(Br)ccc1OC(=O)c1ccc([N+](=O)[O-])cc1)/C(=C\c1ccc2c(c1)OCO2)NC(=O)c1ccccc1 [A4.146] | 54.2 µM
O=C(CNS(=O)(=O)c1ccc2c(c1)OCCO2)N/N=C/c1ccco1 [A4.148] | 55.6 µM
C/C(=N\NC(=O)c1cc(-c2ccccc2)n[nH]1)c1ccco1 [A4.149] | 58.3 µM
O=C(CNC(=O)c1ccccc1F)N/N=C/c1ccc([N+](=O)[O-])o1 [A4.150] | 60 µM
O=C(N/N=C/C=C\c1ccco1)c1cccs1 [A4.151] | 62.7 µM
Cc1ccc(/C=N/NC(=O)COc2cccc(Cl)c2)o1 [A4.153] | 62.7 µM
Cc1ccc(S(=O)(=O)N2CCC(C(=O)N/N=C/c3ccco3)CC2)cc1 [A4.160] | 69.3 µM
COc1cccc(/C=N/NC(=O)c2ccn(C)n2)c1O [A4.177] | 142 µM
C/C(=N\NC(=O)c1ccco1)c1ccc(C)o1 [A4.179] | 152 µM

Next, values leading:

IC50 | SMILES
29.5 µM | O=C(N/N=C/c1ccco1)c1cccc(NC(=O)c2ccccc2)c1 [A4.094]
30 µM | Cc1ccc(/C=N/NC(=O)c2cccc(I)c2)o1 [A4.096]
30.1 µM | O=C(N/N=C\c1ccco1)c1cnccn1 [A4.097]
31 µM | Cc1occc1C(=O)N/N=C/C=C\c1ccco1 [A4.098]
32.5 µM | O=C(N/N=C/c1ccco1)c1ccc(NC(=O)c2ccccc2Cl)cc1 [A4.103]
33.4 µM | CCOc1ccc(-c2cc(C(=O)N/N=C/c3ccco3)[nH]n2)cc1OC [A4.104]
34 µM | O=C(CCC(=O)Nc1cccc(Cl)c1)N/N=C/c1ccco1 [A4.106]
34.7 µM | O=C(Nc1ccccc1C(=O)N/N=C/c1ccco1)c1ccccc1Cl [A4.109]
34.7 µM | COc1ccccc1C(=O)N/N=C/c1ccc(C)o1 [A4.110]
34.7 µM | O=C(N/N=C/c1ccco1)c1cccc(I)c1 [A4.111]
36.1 µM | COc1cc(-c2cc(C(=O)N/N=C/c3ccco3)[nH]n2)ccc1OC(C)C [A4.114]
36.3 µM | COc1cc(Br)ccc1OCC(=O)N/N=C(C)/C=C/c1ccco1 [A4.116]
36.3 µM | Cc1ccc(OCC(=O)N/N=C/c2ccco2)cc1C [A4.117]
36.6 µM | Cc1c(Cl)cccc1NC(=O)CCC(=O)N/N=C/c1ccco1 [A4.119]
37.7 µM | O=C(N/N=C/c1ccco1)c1ccccc1 [A4.120]
38.3 µM | O=C(N/N=C/c1ccco1)c1ccc(O)cc1O [A4.122]

IC50 | SMILES
38.4 µM | CC(=O)Nc1ccc(C(=O)N/N=C/c2ccco2)cc1 [A4.123]
43.2 µM | COc1ccc(OC)c(-c2cc(C(=O)N/N=C/c3ccco3)[nH]n2)c1 [A4.127]
43.3 µM | O=C(Cn1cnc2ccccc21)N/N=C/c1ccco1 [A4.128]
44.7 µM | COc1ccccc1C(=O)N/N=C/c1ccco1 [A4.131]
45.4 µM | Cc1ccccc1C(=O)Nc1ccc(C(=O)N/N=C/c2ccco2)cc1 [A4.133]
46.6 µM | CC(C)Oc1ccc(Br)cc1C(=O)N/N=C/c1ccco1 [A4.134]
47 µM | COc1ccc(N(C(C)C(=O)N/N=C/c2ccco2)S(C)(=O)=O)cc1 (stereo not shown) [A4.136]
47.3 µM | O=C(COc1ccc2ccccc2c1Br)N/N=C/c1ccco1 [A4.137]
48.2 µM | Cc1cc(C(=O)N/N=C/c2ccco2)[nH]n1 [A4.139]
62.7 µM | O=C(N/N=C/c1ccco1)c1cccc(Br)c1 [A4.152]
68.9 µM | O=C(N/N=C/c1ccco1)c1ccc(F)cc1 [A4.159]
74.7 µM | O=C(CCc1ccccc1)N/N=C/c1ccco1 [A4.162]
82.9 µM | O=C(CCn1nnc2ccccc21)N/N=C/c1ccco1 [A4.169]
87.5 µM | O=C(COc1ccccc1)N/N=C/c1ccco1 [A4.170]
91.2 µM | O=C(N/N=C/c1ccco1)c1ccccc1[N+](=O)[O-] [A4.172]
143 µM | O=C(Cc1cccs1)N/N=C\c1ccco1 [A4.178]

Same assay, conditions: Table 5, starred values = ID50; read-out: ID50 APN (values marked with *)

IC50 | SMILES
197 µM | CC(C)Oc1ccc(/C=N/CCC2(c3ccccc3)CCOC(C)(C)C2)cc1 (stereo not shown) [A5.007]

Same assay, conditions: Table 5, unstarred values; read-out: IC50APN

IC50 | SMILES
3.6 µM | O=C(Nc1cccc(/N=C/c2cc(/N=N\c3ccccc3Cl)ccc2O)c1)c1ccco1 [A5.001]
8.2 µM | O=C(Nc1cccc(/N=C/c2cc(Br)cc(Br)c2O)c1)c1ccco1 [A5.003]
20 µM | CCCOc1[nH]c(/N=C/c2ccccc2)c(C#N)c1C#N [A5.004]
77.3 µM | Oc1ccc(Cl)cc1/N=C/c1ccc(-c2ccc(F)cc2)o1 [A5.005]
93.6 µM | CC1(C)CC(CC/N=C/c2ccccc2)(Cc2ccccc2)CCO1 (stereo not shown) [A5.006]

Same assay, conditions: Table 6; read-out: IC50APN

IC50 | SMILES
8.4 µM | COc1ccc(C(=O)Nc2ccc(S(=O)(=O)N3CCCCC3)cc2)cc1 [A6.001]
